Patent US8399459B2, “1,4 oxazines as BACE1 and/or BACE2 inhibitors” (Hoffmann-La Roche Inc., priority 2011, dated 2013)

Key:
[1] = molecular target: T1, P-gp (human MDR1) (Homo sapiens, UniProt P08183); assay: p-gp (P-glycoprotein) assay, bidirectional transcellular transport in LLC-PK1 and L-MDR1 cells; type: in vitro ADME; details: presumably transport efflux ratio (ER)
T1 construct: host or cells: LLC-PK1 (porcine kidney epithelial cell line)
Description: p-gp (P-glycoprotein) Assay
Cell Lines and Vesicles Used for Transport Experiments
The LLC-PK1 cell line (ATCC #CL-101) is a porcine kidney epithelial cell line. The MDR1 (Human multidrug resistance protein 1) transfected cell lines were obtained from Dr. A. Schinkel, The Netherlands Cancer Institute (Amsterdam, The Netherlands). All cell lines were cultured on permeable inserts (Costar, 0.33 cm^2 area, pore size 3.0 μm, low density) at 4.5·10^5 cells/cm^2. Transport measurements were performed at day 4 after seeding. Tightness of the cell monolayer was controlled via the permeability of the extracellular marker lucifer yellow (10 μM). […]
The method used for transport experiments was reported Schwab et al. (see above.). […] Concentrations of substrate in both compartments were determined by scintillation counting (digoxin) or by LC-MS/MS. The extracellular marker (lucifer yellow) was quantified using a spectrafluor plus reader at 430/535 nm (Ex/Em). In each experiment 3 different inserts were used for each condition and a mean was calculated. […]
[formula] where Papp, A, C0, and dQ/dt represent the apparent permeability, the filter surface area, the initial concentration, and the amount transported per time period, respectively. Papp values were calculated on the basis of a single time point (2 h). Transport efflux ratios (ER) were calculated as follows: […]

[2] = molecular target: T2, cathepsin D (from human liver) (Homo sapiens, UniProt P07339); assay: Cathepsin D fluorescent substrate kinetic assay; type: biochemical; details: pH 5.5, substrate […]-MR121
T2 construct: cathepsin D (from human liver, Calbiochem); purchased Calbiochem; host or cells: purified from human liver
T2 sequence (P07339 65-162 limits assumed): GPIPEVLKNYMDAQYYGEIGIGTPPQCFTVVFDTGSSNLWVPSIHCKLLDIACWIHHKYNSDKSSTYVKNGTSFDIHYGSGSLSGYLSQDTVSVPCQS
T2 sequence (P07339 169-412 limits assumed): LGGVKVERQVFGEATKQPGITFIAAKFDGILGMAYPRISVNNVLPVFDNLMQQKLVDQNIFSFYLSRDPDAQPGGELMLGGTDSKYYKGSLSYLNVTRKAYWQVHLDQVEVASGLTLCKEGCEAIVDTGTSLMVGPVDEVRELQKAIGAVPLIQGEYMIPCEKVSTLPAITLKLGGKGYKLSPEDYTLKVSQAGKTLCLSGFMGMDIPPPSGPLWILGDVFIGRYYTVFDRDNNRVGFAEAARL
Description: Cathepsin D and Cathepsin E Fluorescent Substrate Kinetic Assays
The MR121 fluorescence assays described below are based on the fact that MR121 forms a non-fluorescent ground state complex with tryptophan. In solution this formation occurs at millimolar concentrations of tryptophan. The mechanism can be used to design a generic biochemical assay for proteases. A substrate peptide is labeled at the N-terminus with tryptophan and at the C-terminus with the fluorophore MR121 (for cathepsin D the 10 amino acid peptide […]-MR121 was used; for cathepsin E, MR121-[…] was used). In absence of protease activity, the substrates remain intact and the MR121 fluorescence is reduced by the high local Trp-concentration. If the substrates are cleaved by the enzymes the MR121 fluorescence is recovered.
The fluorescent substrate cathepsin D and cathepsin E kinetic assays were performed at room temperature in 384-well microtiter plates (black with clear flat bottom, non binding surface plates from Corning) in a final volume of 51 μl. […] The enzymatic reaction was followed in a plate: vision reader (Perkin Elmer) (excitation wavelength: 630 nm; emission: 695 nm) for at least 30 minutes in a kinetic measurement detecting an increase of MR121 fluorescence during the reaction time. […]

T1 sequence (P08183 whole entry): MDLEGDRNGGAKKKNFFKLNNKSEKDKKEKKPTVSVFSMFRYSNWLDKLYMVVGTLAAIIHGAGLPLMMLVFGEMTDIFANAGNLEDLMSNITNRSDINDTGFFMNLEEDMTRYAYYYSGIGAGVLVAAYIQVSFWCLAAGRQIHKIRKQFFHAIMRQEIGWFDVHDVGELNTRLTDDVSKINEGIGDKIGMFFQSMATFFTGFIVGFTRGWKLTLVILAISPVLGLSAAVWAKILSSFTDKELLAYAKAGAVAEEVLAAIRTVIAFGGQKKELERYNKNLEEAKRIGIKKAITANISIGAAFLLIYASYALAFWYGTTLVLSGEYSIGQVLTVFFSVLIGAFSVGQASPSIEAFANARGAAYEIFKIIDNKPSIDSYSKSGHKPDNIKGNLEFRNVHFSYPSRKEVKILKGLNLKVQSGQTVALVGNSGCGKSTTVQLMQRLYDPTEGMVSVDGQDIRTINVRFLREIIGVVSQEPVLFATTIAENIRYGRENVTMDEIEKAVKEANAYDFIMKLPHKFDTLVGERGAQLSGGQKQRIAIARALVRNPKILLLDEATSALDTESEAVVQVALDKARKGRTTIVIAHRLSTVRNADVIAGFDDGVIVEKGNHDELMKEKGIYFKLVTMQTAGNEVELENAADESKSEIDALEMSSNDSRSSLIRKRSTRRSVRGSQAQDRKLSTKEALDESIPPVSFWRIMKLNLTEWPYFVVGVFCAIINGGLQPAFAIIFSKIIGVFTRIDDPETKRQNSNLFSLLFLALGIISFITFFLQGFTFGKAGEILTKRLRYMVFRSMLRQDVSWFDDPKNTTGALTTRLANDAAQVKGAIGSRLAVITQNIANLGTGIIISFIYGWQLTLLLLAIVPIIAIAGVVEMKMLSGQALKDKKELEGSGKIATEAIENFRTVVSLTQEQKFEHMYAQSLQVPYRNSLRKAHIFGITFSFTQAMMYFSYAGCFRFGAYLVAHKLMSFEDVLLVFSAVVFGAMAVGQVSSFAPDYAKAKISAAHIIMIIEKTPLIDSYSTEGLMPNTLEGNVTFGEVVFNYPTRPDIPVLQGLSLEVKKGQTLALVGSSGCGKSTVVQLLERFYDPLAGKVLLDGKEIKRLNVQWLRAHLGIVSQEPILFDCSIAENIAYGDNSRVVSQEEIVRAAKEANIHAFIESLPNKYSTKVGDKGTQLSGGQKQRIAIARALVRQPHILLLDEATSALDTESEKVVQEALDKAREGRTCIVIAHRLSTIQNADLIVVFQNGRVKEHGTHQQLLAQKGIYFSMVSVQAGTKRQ

| efflux ratio at 2 h [1] | IC50 [2] [µM] | SMILES |
| --- | --- | --- |
| 1.1 | 2.8 | CC1(c2cccc(-c3cc(Cl)cc(Cl)c3)c2)COCC(N)=N1 (stereo not shown) [Example 32, 5-(3′,5′-Dichloro-biphenyl-3-yl)-5-methyl-5,6-dihydro-2H-[1,4]oxazin-3-ylamine] |
| 11 | 34 | CC1(c2cc(-c3cncnc3)ccc2F)COCC(N)=N1 (stereo not shown) [Example 36, 5-(2-Fluoro-5-pyrimidin-5-yl-phenyl)-5-methyl-5,6-dihydro-2H-[1,4]oxazin-3-ylamine] |
